# Tests used:
# UBE2K = target: T1, UBE2K (Homo sapiens, UniProt P61086); experiment: UBE2K dissociation constant (Kd) by surface plasmon resonance (Biacore S200); assay type: binding; conditions: SPR, steady state fitting; immobilized biotinylated UBE2K-Ub complex and UBE2K wild type
# T1 sequence (P61086 1-200): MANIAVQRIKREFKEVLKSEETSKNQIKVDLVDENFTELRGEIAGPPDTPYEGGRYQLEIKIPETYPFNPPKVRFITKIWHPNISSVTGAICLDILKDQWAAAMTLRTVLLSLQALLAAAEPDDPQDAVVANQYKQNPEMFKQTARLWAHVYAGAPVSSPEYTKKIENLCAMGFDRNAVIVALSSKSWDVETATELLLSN
# Method: UBE2K Dissociation Constant (Kd) of E2-binder Compound 1
# UBE2K Ligand binding to mono-Ub UBE2K and UBE2K was measured by Surface plasma resonance using a Biacore SPR S200 instrument. The proteins and ligands were prepared for experimental measurement as described below.
# Avi tagged proteins were biotinylated and were immobilized on a Series S/Sensor Chip SA. Proteins were immobilized based on their molar weight as follows -Biotinylated Avi peptide (1000 μM), Biotinylated UBE2K-Ub Complex (12 μM) and Biotinylated UBE2K Wild Type (3 μM). Proteins were immobilized using a buffer comprised of 1X HBS-N Buffer+0.05% Tween 20 (250 mL). A stock of Compound 1 was prepared in affinity buffer comprised of 1% DMSO, 1×PBS-P+Buffer. Further dilution of stock were prepared in 0% DMSO, 1×PBS-P+Buffer or 3% DMSO, 1×PBS-P+Buffer and were used as running buffers. Compound 1 was prepared as 2 mM or 750 μM stocks in the buffers described above. Titration was performed using the Liquid handler/TECAN EVO (WALL-E) as follows. 1 or 2, 96 deep well plates (1.2 mL) were used for performing titrations-Aliquoted 3% DMSO, 1×PBS-P+buffer. 1:2 dilution was performed by WALL-E (250 μL+250 μL) for the rest of titrations till 3.12 μM. The titrations of Compound 1 was then transferred to 384 deep well plate in duplicates side-by-side (125 μL) each. […]
# UBE2K-Ub = experiment: E2 binding capacity of PROTACs (FIG. 1)
# Description: UBE2K binder Compound 1 was used as a precursor to generate PROTAC Compounds 2, 6, 7, and 9. See experimental section above. Each of these PROTACs were first tested for their ability to bind the E2 enzyme UBE2K.
# BRD4 = target: T2, BRD4 (Homo sapiens, UniProt O60885); experiment: Dose dependent degradation of BRD4 in HeLa cells (FIG. 2); assay type: cell-based
# T2 construct: dose dependent degradation of BRD4 in HeLa cells; endogenous in cells; host or cells: HeLa
# Description: FIG. 2 illustrates the dose dependent degradation of BRD4 in HeLa cells using E2 binding PROTACS based on the present disclosure.
# Dose Dependent Degradation of BRD4 in HeLa Cells
# Compounds 6, 7, and 9 were then investigated for their ability to degrade BRD4.
Compound,loss of BRD4 (BRD4),further results
"O=C(NCc1cc2c3ccccc3nc(S)n2n1)c1ccccc1OC(F)(F)F [Compound 1, N-((5-thioxo-5,6-dihydropyrazolo[1,5-c]quinazolin-2-yl)methyl)-2-(trifluoromethoxy)benzamide]",,Kd (UBE2K): 2110 nM
"Cc1sc2c(c1C)C(c1ccc(Cl)cc1)=N[C@@H](CC(=O)NCCSc1nc3ccccc3c3cc(CNC(=O)c4ccccc4OC(F)(F)F)nn13)c1nnc(C)n1-2 [Compound 2, (S)—N-((5-((2-(2-(4-(4-chlorophenyl)-2,3,9-trimethyl-6H-thieno[3,2-f][1,2,4]triazolo[4,3-a][1,4]diazepin-6-yl)acetamido)ethyl)thio)pyrazolo[1,5-c]quinazolin-2-yl)methyl)-2-(trifluoromethoxy) benzamide]",,binding to UBE2K-Ub (UBE2K-Ub): All compounds except for Compound 2 bind
"Cc1sc2c(c1C)C(c1ccc(Cl)cc1)=N[C@@H](CC(=O)NCCOCCNC(=O)CSc1nc3ccccc3c3cc(CNC(=O)c4ccccc4OC(F)(F)F)nn13)c1nnc(C)n1-2 [Compound 7, (S)—N-((5-((2-((2-(2-(2-(4-(4-chlorophenyl)-2,3,9-trimethyl-6H-thieno[3,2-f][1,2,4]triazolo[4,3-a][1,4]diazepin-6-yl)acetamido)ethoxy)ethyl)amino)-2-oxoethyl)thio)pyrazolo[1,5-c]quinazolin-2-yl)methyl)-2-(trifluoromethoxy)benzamide]",concentration dependent loss of BRD4,
"Cc1sc2c(c1C)C(c1ccc(Cl)cc1)=N[C@@H](CC(=O)NCCOCCOCCNC(=O)CSc1nc3ccccc3c3cc(CNC(=O)c4ccccc4OC(F)(F)F)nn13)c1nnc(C)n1-2 [Compound 9, (S)—N-((5-((14-(4-(4-chlorophenyl)-2,3,9-trimethyl-6H-thieno [3,2 f][1,2,4]triazolo [4,3-a][1,4]diazepin-6-yl)-2,13-dioxo-6,9-dioxa-3,12-diazatetradecyl)thio)pyrazolo[1,5-c]quinazolin-2-yl)methyl)-2-(trifluoromethoxy)benzamide]",concentration dependent loss of BRD4,
